In patent US12533373B2, “β-glucan composition and use therefor” (Qingdao Conson Pharmaceutical Co., Ltd., priority 2019, dated 2026):
Values joined by “and” are separate entries in the source; they are usually repeats but may differ in a detail not shown here. Identical values can stand only once.

Assays:
[1] = tested on: SW-480 human colon cancer transplanted tumors; experiment: nude mice transplanted tumor model, SW-480; format: in vivo, BALB/c nude mice; details: 5-FU 18 mg/kg, tail vein, twice a week
Method: The […] was resuscitated with liquid nitrogen and cultured in 5A medium containing 10% fetal bovine serum; the cells were expanded and cultured in culture flasks and collected by digestion after reaching the required cells number; the cells were diluted using 5A medium containing 10% fetal bovine serum into suspensions of 250 million cell/ml which was inoculated subcutaneously to the axilla of the right forelimb of each mouse with 0.2 ml per mouse after routine sterilization. When growing to tumors to about 1 g of tissue mass, the animal was sacrificed and the tumor was cut into 2-3 cubic millimeter pieces and implanted subcutaneously into nude mice for passaging by catheter method, and two consecutive passages were performed. HT-29, SW-480, DLD-1 and RKO cell lines listed in the table were modeled and experimented using the same method. Waiting for the tumors of the passaged tumor-bearing nude mice grown to about 1 g, the tumors were transplanted for modeling via the method described above, and the animals were randomly grouped and administration was started on the next day after transplantation.
The animals were grouped using the random grouping method, 8 animals each group.
The route of administration is via tail vein injection, and the amount of administration for each animal was determined based on the latest body weight prior to administration. […]

[2] = tested on: S180 mouse fibrosarcoma cells; experiment: murine S180 sarcoma residual carcinoma model; format: in vivo, Kunming mice; details: 5-FU 18 mg/kg
Method: S180 mouse fibrosarcoma cells were amplified by culturing in DMEM high sugar medium containing 10% FBS. The cells were ready for the next step when entering the logarithmic growth phase. The cells at logarithmic growth phase were collected by centrifugation and counted. The cell concentration was adjusted, and inoculated at 0.2 ml/mouse into the peritoneal cavity of Kunming mice as the first-generation breeder mouse. After rearing for one week, the ascites in peritoneal cavity of the first-generation breeder mouse were taken for centrifugation and count, the cell concentration was adjusted, and inoculated at 0.2 ml/mouse into the peritoneal cavity of Kunming mice as the second-generation breeder mouse, and after rearing for another week, the ascites in peritoneal cavity of the second-generation breeder mouse were taken for centrifugation and count, the cell concentration was adjusted, and inoculated at 0.2 ml/mouse into subcutaneous back of Kunming mice. The whole inoculation process was carried out aseptically in the ultra-clean workstation. After inoculation, the growth of mice was observed, and the mice were screened according to their growth state, and after screening, the mice were grouped randomly and administered.

[3] = tested on: Mouse lung cancer Lewis cells; experiment: mouse Lewis lung cancer residual cancer model; format: in vivo, C57BL/6 mice; details: 5-FU 18 mg/kg
Method: Mouse lung cancer Lewis cells were amplified by culturing in DMEM high sugar medium containing 10% FBS. The cells were ready for the next step when entering the logarithmic growth phase. The cells at logarithmic growth phase were collected by centrifugation and counted. The cell concentration was adjusted and inoculated subcutaneously at 0.2 ml/mouse in the right axilla of C57BL/6 mice as breeder mouse. After grew to over 1000 mm^3, the tumors were removed aseptically, weighed, diluted by adding sodium chloride injection with mass to volume ratio of 1:4 and […], after conventional sterilization, inoculated subcutaneously to the axilla of the right forelimb of each mouse with 0.2 ml per mouse for passaging. After grew to over 1000 mm^3, the second generation tumors were taken aseptically, weighed, diluted by adding sodium chloride injection with mass to volume ratio of 1:4 and ground, and then inoculated subcutaneously to the back of mice at 0.2 ml per mouse after routine sterilization. The growths of mice were observed after inoculation, and screened according to the growth state of mice, and after screening, the mice were grouped randomly and administered.

O=c1[nH]cc(F)c(=O)[nH]1 [Example 5-FU, Fluorouracil]
Inhibition rate [1]: 57.91%
Tumor weight [1]: 0.43 g
Inhibition rate [2]: 85.30% and 66.85%
Tumor weight [3]: 1.29 g and 1.24 g
